Experiments:
[1] = Rotarod test (motor coordination); type: in vivo; conditions: male, Swiss albino (CD-1), mouse, in vivo, ip, mice
Experimental: (§1) All procedures were carried out in accordance with applicable Polish and international guidelines on the ethics of animal testing, after obtaining appropriate institutional approval. The substances were administered intraperitoneally (i.p.), in 1% aqueous solution of Tween, as single injections with a volume of 10 ml/kg, 30 minutes before the given test. Screening was performed on groups consisted of 4 mice. […] All tests were carried out based on the procedures described in the specialist literature.
Mice were trained the day before the actual experiment. They were placed individually on a 2 cm diameter rod rotating at 10 revolutions per minute (rpm). During each training session, the animals remained on the rod for 3 minutes. The experiment was carried out 30 minutes after administration of the compounds. Motor coordination was tested at the speed of the rotating bar: 10 rpm during 60 seconds. Motor impairments were defined as the inability to remain on the rotating rod for 1 min.
(§2) To perform a statistical evaluation of the results, one-way ANOVA variance analysis and Dunnett's post hoc test (multiple comparison test) were used. The value at the significance level p<0.05 was considered statistically significant.

[2] = tested on: male Swiss albino mice (CD-1); assay: Subcutaneous pentylenetetrazole seizure test (scPTZ); type: in vivo; conditions: 0.5 h, mice
Experimental: (§3) The male Swiss albino mice (CD-1) weighing 18-26 g were used. All procedures were carried out in accordance with applicable Polish and international guidelines on the ethics of animal testing, after obtaining appropriate institutional approval. The substances were administered intraperitoneally (i.p.), in 1% aqueous solution of Tween, as single injections with a volume of 10 ml/kg, 30 minutes before the given test. Screening was performed on groups consisted of 4 mice. The average effective dose (ED50) in given test and toxic dose in the rotarod test (TD50) was estimated based on the results obtained in 3-4 groups of animals consisting of 6 mice. All tests were carried out based on the procedures described in the specialist literature.
In the scPTZ test, seizures were induced by subcutaneous administration of pentylenetetrazole (PTZ) at a dose of 100 mg/kg. This caused clonic seizures with accompanying loss of the righting reflex. Test compounds were administered 30 minutes before the experiment. After PTZ administration, the animals were placed individually in transparent containers and observed for a period of 30 minutes for the occurrence of clonic seizures. During this time, the latency of the first onset of clonic seizures, defined as clonus of the whole body lasting at least 3 seconds with loss of the righting reflex and the number of seizure episodes during the test were noted and compared with control group. The absence of clonic convulsions within the observed time period was interpreted as the compound's ability to protect against PTZ-induced seizures (Ferreri, G.; Chimirri, A.; Russo, E.; Gitto, R.; Gareri, P.; De Sarro, A.; De Sarro, G. Pharmacol. Biochem. Behav. 2004, 77, 85-94; Łączkowski, K.; Sałat, K.; Misiura, K.; Podkowa, A.; Malikowska, N. J. Enzyme Inhib. Med. Chem. 2016, 31, 1576-82).
as §2

[3] = tested on: male Swiss albino mice (CD-1); assay: Maximal electroshock seizure test (MES); type: in vivo; conditions: 0.5 h, mice; for ED50 / responders at 100 mg/kg: Mus musculus, ip; for responders at 100 mg/kg: read-out: MES: number of mice protected/number of mice tested (converted)
Experimental: as §3
In the MES test, the seizures were induced by an electrical stimulus lasting of 0.2 s duration, 500 V voltage and 25 mA intensity. The electrical stimuli was generated using an electric shock generator (Rodent shocker, Type 221, Hugo Sachs Elektronik, Germany) and delivered to the animal using electrodes placed on the auricles. The study was conducted 30 minutes after intraperitoneal administration of the compounds at various doses. During the experiment, the number of animals that experienced a seizure episode in the form of tonic extension of the hind limbs was counted (Kamiński, K.; Rapacz, A.; Łuszczki, J. J.; Latacz, G.; Obniska, J.; Kieć-Kononowicz, K.; Filipek, B. Bioorg. Med. Chem. 2015, 23, 2548-2561; Castel-Branco, M. M.; Alves, G. L.; Figueiredo, I. V.; Falcão, A. C.; Caramona, M. M. Methods Find. Exp. Clin. Pharmacol. 2009, 31, 101-106).
as §2

[4] = tested on: male Swiss albino mice (CD-1); assay: Psychomotor seizure test 6 Hz (44 mA); type: in vivo; conditions: 0.5 h, mice; for 6 Hz (44 mA): number of mice protected/number of mice tested: screening, 100 mg/kg i.p.
Experimental: as §1
In the 6 Hz test, seizures were induced by an electric stimulus of 32 mA and/or 44 mA and a frequency of 6 pulses per second. […] Before starting the test, the eye surface was gently moistened with a solution of local anesthetic (1% lidocaine solution). The study was conducted 30 minutes after intraperitoneal administration of the compounds at various doses. An electrical pulse was delivered continuously for a period of 3 seconds, followed by observation of the animal for a period of 10 seconds. During this time, immobility or stun associated with rearing, forelimb clonus, twitching of the vibrissae and Straub's tail were observed. These symptoms persist throughout the observation period, indicating the occurrence of psychomotor seizures in mice.
as §2

[5] = tested on: male Swiss albino mice (CD-1); assay: Psychomotor seizure test 6 Hz (32 mA); type: in vivo; conditions: Mus musculus, ip, 0.5 h, mice; for responders at 100 mg/kg: screening, 100 mg/kg i.p., read-out: 6 Hz (32 mA): number of mice protected/number of mice tested (converted)
Experimental: as §3
In the 6 Hz test, seizures were induced by an electric stimulus of 32 mA and/or 44 mA and a frequency of 6 pulses per second. An electrical pulse was generated using an electric shock generator (ECT Unit 57800; Ugo Basile, Gemonio, Italy) and delivered to the animal using ocular electrodes. Before starting the test, the eye surface was gently moistened with a solution of local anesthetic (1% lidocaine solution). The study was conducted 30 minutes after intraperitoneal administration of the compounds at various doses. An electrical pulse was delivered continuously for a period of 3 seconds, followed by observation of the animal for a period of 10 seconds. During this time, immobility or stun associated with rearing, forelimb clonus, twitching of the vibrissae and Straub's tail were observed. These symptoms persist throughout the observation period, indicating the occurrence of psychomotor seizures in mice. Mice resuming normal behavior within 10 s after stimulation were considered as protected (Barton, M. E.; Klein, B. D.; Wolf, H. H.; White, H. S. Epilepsy Res. 2001, 47, 217-227; Wojda, E.; Wlaź, A.; Patsalos, P. N.; Łuszczki, J. J. Epilepsy Res. 2009, 86, 163-174).
as §2

[6] = Metabolic stability in human liver microsomes; type: in vitro ADME
Experimental: Metabolic stability. The metabolic stability of compound 6 was evaluated using human liver microsomes (HLMs). Internal clearance values CLint were calculated by monitoring changes in compound concentration in the presence of microsomes per unit of time, according to the procedure proposed by Obach R. S. (Obach, R. S. Drug Metab. Dispos. 1999, 27, 1350-1359).
Metabolic stability tests—methodology. Metabolic stability studies for compound 6 were performed using HLMs (Promega, Madison, WI, USA). For this purpose, 10 μL of compound 6 at a concentration of 1000 μM was diluted with 132 μL with tris-HCl buffer (100 mM, pH 7.4), followed by the addition of 8 μL of appropriate microsomes. The reaction mixture was preincubated at 37° C. for 5 minutes, followed by the addition of 50 μL of NADPH Regeneration System, supplied by Promega (Madison, WI, USA). After mixing, the whole mixture was incubated at 37° C. for 120 minutes. To complete the reaction, 200 μL of cold methanol was added to the tubes and centrifuged. The supernatant was subjected to UPLC/MS analysis, including fragmentation analysis. Four mixtures of 6 with HLMs were prepared to determine the internal clearance CLint. Each of these reactions was completed at a different time point, after 5, 15, 30 and 45 min, by the addition of cold methanol containing 50 μM internal standard. Then, according to literature guidelines (Obach, R. S. Drug Metab. Dispos. 1999, 27, 1350-1359), based on the plot of the relationship between the height of the peak from 6 and the height of the internal standard, the regression equation was determined and the reaction rate constant k was calculated. Then the constant k was substituted to equation (1).
The calculated t1/2 value was then substituted into equation (2): […]

Row | Compound | TD50 at 0.5 h [1] [mg/kg] | ED50 ([2]; Mus musculus, ip) [mg/kg] | scPTZ: number of mice protected/number of mice tested ([2]; screening, 100 mg/kg i.p.) | ED50 [3] [mg/kg] | responders at 100 mg/kg ([3]; screening, 100 mg/kg i.p.) [%] | ED50 ([4]; Mus musculus, ip) [mg/kg] | 6 Hz (44 mA): number of mice protected/number of mice tested [4] | ED50 [5] [mg/kg] | responders at 100 mg/kg [5] [%] | metabolites found by UPLC after incubation with HLMs ([6]; 120 min incubation, UPLC/MS) | CLint scaled at 50 µM ([6]; human, human liver microsomes, pH 7.4, incubation with HLMs, read-out: internal clearance CLint) [mL/min/kg] | melting point [°C] | responders at 100 mg/kg ([2]; Mus musculus, ip, screening, 100 mg/kg i.p., read-out: scPTZ: number of mice protected/number of mice tested (converted)) [%] | scPTZ: number of mice protected/number of mice tested ([2]; screening, 100 mg/kg i.p., 100 mg/kg) | MES: number of mice protected/number of mice tested ([3]; screening, 100 mg/kg i.p.)
1 | O=C([C@@H](c1ccccc1)N1C(=O)CCC1=O)N1CCN(c2cccc(C(F)(F)F)c2)CC1 [(R)-6, (R)-1-(2-Oxo-1-phenyl-2-(4-(3-(trifluoromethyl)phenyl)piperazin-1-yl)ethyl) pyrrolidine-2,5-dione] | 468 | 54.8 | ¾ | 36 | 100 | 115 | ¾ | 39.1 | 100 | two metabolites | 2.4 | – | – | – | –
2 | O=C(C(c1ccccc1)N1C(=O)CCC1=O)N1CCC(c2cccc(C(F)(F)F)c2)CC1 (racemic) [Compound 19, 1-(2-Oxo-1-phenyl-2-(4-(3-(trifluoromethyl)phenyl)piperidin-1-yl)ethyl)pyrrolidine-2,5-dione] | 254 | < 100 | – | 81.8 | 100 | – | 2/4 | 41 | 100 | – | – | 100.1 to 101.5 | 100 | ¾ | ¾
